From US6207596A, “Disposable premoistened wipe containing an antimicrobial protease inhibitor” (The Procter & Gamble Company, priority 1998, dated 2001) come the findings set out here.

As a reminder, the IC50 is the concentration needed to halve the response being measured.

The subject of experiment [1] is Staphylococcus aureus. Kind of experiment: Method 3: antimicrobial activity (NCCLS dilution, MIC), S. aureus. In kind it is cell-based, Staphylococcus aureus ATCC 25923. The conditions noted are these: ATCC25923, ATCC 25923, diluted with distilled water, 24 hours at 37° C., read-out: Minimal Inhibitory Concentration. On the procedure: (§1) 3. Method for Determining the Activity of Antimicrobial Agents:
(§2) This method is used to determine the antimicrobial activity of antimicrobial agents. The antimicrobial activity of an antimicrobial agent is tested according to the National Committee for Clinical Laboratory Standards ("NCCLS") Methods. The NCCLS Dilution Antimicrobial Susceptibility Test for Bacteria Which Grow Aerobically is used (i.e.; NCCLS Document M7-A2, 1990).
(§3) Serial two-fold dilutions of the antimicrobial agent are made in trypticase soy broth in a microtiter plate (in the case of hexamidine diisethionate a 1000 μM starting concentration is recommended). Microorganism inocula are prepared by harvesting colonies from agar plates into saline and adjusting the optical density of the solution to be equivalent to the 0.5 McFarland standard. Each microorganism suspension is diluted 1:10 and 10 microliters of the suspension added to each microtiter well.
(§4) The microtiter plates are sealed and incubated for 24 hours at 37° C. The highest dilution of the antimicrobial agent preventing growth is recorded as the minimal inhibitory concentration ("MIC").
(§5) Referring to Table II, the antimicrobial activity of hexamidine diisethionate on three different microorganisms is shown. For purposes of this example, hexamidine diisethionate was diluted with distilled water and evaluated according to Method 3 above. […]

Experiment [2] concerns Candida albicans. Kind of experiment: Method 3: antimicrobial activity (NCCLS dilution, MIC), C. albicans. The experiment is classed as cell-based, Candida albicans ATCC 10231. Particulars: ATCC10231, ATCC 10231, diluted with distilled water, 24 hours at 37° C., read-out: Minimal Inhibitory Concentration. On the procedure: as §1, §2, §3, §4, §5
Experiment [3] deals with fecal trypsin. In words: Method 2a: Efficacy of Protease Inhibitors in Fecal Trypsin. In kind it is biochemical. The conditions noted are these: pooled infant fecal suspension; 25° C., 405 nm corrected by 490 nm. On the procedure:
(§6) Standard in vitro assays for determining enzyme activity, and inhibition of enzyme activity, are well known. The reagents used to conduct these tests are generally commercially available. In general, a simple system comprises an enzyme-specific substrate which, when hydrolyzed by the enzyme, produces a colored product. The activity of the enzyme is measured spectrophotometrically as the degree of development of the colored product (i.e.; the rate of color change) over a predetermined time period.
(§7) The inhibitory activity of an enzyme inhibitor may be calculated according to the following equation: […]
(§8) In the methods, v and vi are measured as the change in absorbency (optical density, OD) at a given wavelength/time (e.g., minutes). […]
Serial dilutions of a protease inhibitor are made using distilled water. A 0.7 ml aliquot of each dilution of protease inhibitor to be evaluated is added to a microcuvette. […]
A volume of 0.1 mL of fecal suspension is added to the microcuvette and mixed. The absorbency of the mixture at 490 nm is measured with the spectrophotometer. […] The absorbency of the mixture at 405 nm is then measured with the spectrophotometer over a period of 5 minutes at 25° C. These […] in order to correct for any background interference. […]

In experiment [4] the test system is purified trypsin (human pancreatic trypsin). In words: Method 1a: Efficacy of Protease Inhibitors in Purified Trypsin. In kind it is biochemical. The conditions noted are these: 25° C., 405 nm; inhibitor diluted in distilled water. The method, then:
as §6, §7, §8
Serial dilutions of a protease inhibitor are made using distilled water. A 50 μl aliquot of each serial dilution of protease inhibitor to be evaluated is added to a microcuvette containing 0.020 ml of trypsin buffer and 0.105 ml of purified trypsin. […]
After incubating, 0.025 ml of the 4 mM N-carbobenzyloxy-arginine-p-nitroanilide substrate solution is added to the microcuvette. […] The absorbency of the mixture is then measured at a wavelength of 405 nm over a period of 10 minutes at a temperature of 25° C. […]

For experiment [5], the system named is Escherichia coli. In words: Method 3: antimicrobial activity (NCCLS dilution, MIC), E. coli. The experiment is classed as cell-based. Particulars: ATCC25922, ATCC 25922, diluted with distilled water, 24 hours at 37° C., read-out: Minimal Inhibitory Concentration. The method, then: as §1, §2, §3, §4, §5

Take `N=C(N)c1ccc(OCCCCCCOc2ccc(C(=N)N)cc2)cc1` [hexamidine diisethionate]: the MIC in experiment [1] came out at 3 µM; in experiment [2], 13 µM; in experiment [5] it was 53 µM. The concentration for half-maximal inhibition (IC50) worked out at 2.3 µM in experiment [3] and 2.5 µM in experiment [4].
